Data on ten molecules can be found in ChEMBL document CHEMBL1126397, “Synthesis of acid stable 5-o-fluoromethyl phosphonates of nucleosides. Evaluation as inhibitors of reverse transcriptase” (Bioorg Med Chem Lett, 1992).

The structures appear in SMILES notation.

For the test, the target named is T1, Avian myoblastosis virus polyprotein II (Avian myeloblastosis virus, UniProt Q86831).
T1 sequence (Q86831 whole entry): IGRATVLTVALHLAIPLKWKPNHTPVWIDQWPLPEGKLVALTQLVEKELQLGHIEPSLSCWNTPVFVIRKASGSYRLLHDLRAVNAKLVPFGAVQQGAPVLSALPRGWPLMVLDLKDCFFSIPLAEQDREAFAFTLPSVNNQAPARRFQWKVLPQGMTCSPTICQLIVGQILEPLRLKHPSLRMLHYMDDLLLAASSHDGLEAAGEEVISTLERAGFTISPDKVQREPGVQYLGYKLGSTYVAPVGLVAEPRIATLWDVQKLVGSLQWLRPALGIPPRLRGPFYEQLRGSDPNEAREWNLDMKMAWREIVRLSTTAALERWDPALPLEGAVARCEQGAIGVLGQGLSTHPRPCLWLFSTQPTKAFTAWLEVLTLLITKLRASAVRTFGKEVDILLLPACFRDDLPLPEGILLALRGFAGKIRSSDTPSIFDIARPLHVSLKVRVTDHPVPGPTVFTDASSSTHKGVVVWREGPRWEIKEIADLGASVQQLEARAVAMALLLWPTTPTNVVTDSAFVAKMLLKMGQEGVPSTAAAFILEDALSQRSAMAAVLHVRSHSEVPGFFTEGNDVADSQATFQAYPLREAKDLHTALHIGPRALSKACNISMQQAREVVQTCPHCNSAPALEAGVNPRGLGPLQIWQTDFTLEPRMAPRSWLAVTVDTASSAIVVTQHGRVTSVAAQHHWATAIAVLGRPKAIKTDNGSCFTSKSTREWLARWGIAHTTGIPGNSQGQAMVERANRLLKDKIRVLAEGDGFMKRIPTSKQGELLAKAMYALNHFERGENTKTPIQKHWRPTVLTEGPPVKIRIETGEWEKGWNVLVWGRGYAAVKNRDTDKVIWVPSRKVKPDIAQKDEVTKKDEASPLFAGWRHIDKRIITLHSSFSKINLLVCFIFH
The experiment in a line: Inhibitor of avian myeloblastosis virus AMV reverse transcriptase.

`Cc1cn(C2CC(N=[N+]=[N-])C(COP(=O)(O)C(F)F)O2)c(=O)[nH]c1=O` (stereo not given): 118 µM corresponded to half-maximal inhibition (IC50).

With `Nc1ccn(C2O[C@H](COP(=O)(O)C(F)F)[C@@H](O)[C@H]2O)c(=O)n1` (stereo not given in full), it took 171 µM to reach half-maximal inhibition (IC50).

As to `Cc1cn(C2C=CC(COP(=O)(O)C(F)F)O2)c(=O)[nH]c1=O` (stereo not given), the IC50 (commonly the concentration needed to halve the response being measured) was 887 µM.

In turn, `Nc1nc(O)c2ncn(C3O[C@H](COP(=O)(O)C(F)(F)F)[C@@H](O)[C@H]3O)c2n1` (stereo not given in full) had an IC50 of 145 µM.

`O=c1[nH]c(=O)n([C@H]2C[C@H](O)[C@@H](COP(=O)(O)C(F)F)O2)cc1F`: the half-maximal inhibitory concentration (IC50) was 375 µM.

`O=c1[nH]c(=O)n([C@H]2C[C@H](O)[C@@H](COP(=O)(O)C(F)(F)F)O2)cc1F` gave an IC50 of 82 µM.

Turning to `Cc1cn(C2C=CC(COP(=O)(O)CF)O2)c(=O)[nH]c1=O` (stereo not given), half-maximal inhibition (IC50) required 281 µM.

Molecule `Cc1cn(C2CC(N=[N+]=[N-])C(COP(=O)(O)C(F)(F)F)O2)c(=O)[nH]c1=O` (stereo not given) had an IC50 of 37.6 µM.

On to `Cc1cn(C2C=CC(COP(=O)(O)C(F)(F)F)O2)c(=O)[nH]c1=O` (stereo not given), for which the IC50 was 842 µM.

`Cc1cn(C2CC(N=[N+]=[N-])C(COP(=O)(O)CF)O2)c(=O)[nH]c1=O` (stereo not given): the IC50 is 127 µM.
